From patent US8680059B2, “Oligopeptide acetate and formulations thereof” (Biotempt B.V., priority 1998, dated 2014)
“And” between values parts separate entries of the source, which are not always exact repeats. Identical values can stand only once.

Key:
[1] = tested on: RAW 264.7 murine macrophage cell line; test: Nitrite (NO) production in LPS-stimulated RAW 264.7 macrophages; type: cell-based; conditions: co-stimulated with LPS 10 microg/ml, peptide even at 1 pg/ml, 24 hours
Method: Cell culture. The RAW 264.7 murine macrophage cell line, obtained from American Type Culture Collection (Manassas, Va., USA), were cultured at 37° C. in 5% CO2 using DMEM containing 10% fetal calf serum (FCS), 50 U/ml penicillin, 50 μg/ml streptomycin, […] Na-pyruvate, 2 mM glutamine and 50 μM 2-mercaptoethanol (Bio Whittaker, Europe). The medium was changed every 2 days.
Nitrite measurements. Nitrite production was measured in the RAW 264.7 macrophage supernatants. The cells (7.5×10^5/ml) were cultured in 48-well plates in […] of culture medium. The cells were stimulated with LPS (10 microg/ml) and/or peptide (1 pg/ml, 1 ng/ml, 1 μg/ml) for 24 hours, then the culture media were collected. Nitrite was measured by adding 100 microl of Griess reagent (Sigma) to 100 microl samples of culture medium. The OD540 was measured using a microplate reader, and the nitrite concentration was calculated by comparison with the OD540 produced using standard solutions of sodium nitrite in the culture medium.

[2] = tested on: BALB/c mice injected i.p. with LPS (E. coli 026:B6); test: LPS-induced septic shock (endotoxin model) in BALB/c mice; type: in vivo, mouse
Method: Mice used in sepsis or septic shock experiments: Female BALB/c mice of 8-12 weeks of age were used for all experiments. The animals were bred in our facility under specific pathogen-free conditions according to the protocols described in the Report of European Laboratory Animal Science Associations (FELASA) Working group on Animal Health (Laboratory Animals 28: 1-24, 1994).
Injection protocols: For the endotoxin model, BALB/c mice were injected i.p. with 150-300 μg LPS (E. coli 026:B6; Difco Lab., Detroit, Mich., USA). Control groups were treated with PBS i.p. only. To test the effect of peptides, they were dissolved in PBS and injected i.p. at predetermined points in time after LPS treatment.
Mice were scored for sickness severity using the following measurement scheme: • 0 No abnormalities. • 1 Percolated fur, but no detectable behavior differences compared to normal mice. • 2 Percolated fur, huddle reflex, responds to stimuli (such as tap on cage), just as active during handling as healthy mouse. • 3 Slower response to tap on cage, passive or docile when handled, but still curious when alone in a new setting. • 4 Lack of curiosity, little or no response to stimuli, quite immobile. • 5 Labored breathing, inability or slow to self-right after being rolled onto back (moribund, sacrificed). • D Dead […]
A comparative trial was set up to compare peptide MTR and SEQ ID NO:2. The comparative trial comprised 6 groups of 6 animals; two groups (1A and 1B) receiving placebo (PBS), one group (2) peptide MTR (source Pepscan, Lelystad, NL), one group (3) receiving peptide MTR (source Ansynth), one group (4) receiving peptide SEQ ID NO:2 (source Pepscan) and one group peptide SEQ ID NO:2 (source Ansynth). Peptide/placebo in these groups was administered 2 hours after LPS. LPS (source) was used at 10-11 mg/kg. Sickness scores were done at 0, 2, 22 26 42 and 48 hours after LPS injection.

[3] = tested on: mice, 25 minutes renal ischemia/reperfusion; test: Mouse renal ischemia reperfusion test (mortality, BUN/serum urea); type: in vivo; set-up: BUN, mean / Urea level: unit not given here; conditions: 5 mg/kg i.v.
Method: SEQ ID NO:2 was tested and compared with PBS (control) in a double blind animal study for the peptide's relative ability to aid recovery in a mouse renal ischemia reperfusion test. In this test, the mice were anesthetized, and one kidney from each mouse was removed. The other kidney was tied off for 25 minutes, and the serum urea levels were allowed to increase. Both before and after tying off, the peptide was administered to thirty (30) different mice (5 mg oligopeptide/kg body mass intravenously), after which, the mortality of the mice was determined for each oligopeptide as well as was the BUN concentration at two hours, 24 hours and 72 hours.
Under inhalation anesthesia, the left kidney with its artery and vein was isolated and occluded for 25 minutes using a microvascular clamp. During surgery animals were placed on a heating path to maintain body temperature at 37° C. Five minutes before placing the clamp, and 5 minutes before releasing the clamp, 5 mg/kg of peptide, dissolved in 0.1 mL of sterile saline, was administered intravenously. After reperfusion of the left kidney the right kidney was removed. Kidney function was assessed by measuring blood urea nitrogen before clamping, and at 2, 24, and 72 hours after reperfusion.
To determine dose-response relationships SEQ ID NO:2, was tested in a dose-response manner in the mice test as described above. Peptides were tested at 0.3, 1, 3, 10 and 30 mg/kg dosages given as described in Example I. Serum urea levels are presented in Table 3.

[4] = tested on: mice, high dose LPS septic shock; conditions: single treatment after high dose LPS injection; cited from earlier work
[5] = peptide twice (t = 2 hr and 24 hr) 5 mg/kg, LPS dose 11, t = 24 hr
[6] = peptide twice (t = 2 hr and 24 hr) 5 mg/kg, LPS dose 11, t = 48 hr
[7] = single dose 5 mg/kg, LPS dose 7*, t = 24 hr
[8] = single dose 5 mg/kg, LPS dose 8, t = 24 hr
[9] = single dose 5 mg/kg, LPS dose 8, t = 48 hr
[10] = single dose 5 mg/kg, LPS dose 10, t = 24 hr
[11] = single dose 5 mg/kg, LPS dose 10, t = 48 hr

Q: What does the source list for “LQGV [tetrapeptide from loop 2 of the beta-subunit of hCG]”?
A: NO production [1]: inhibited the production of NO; effect against LPS-induced sepsis ([2]; 5 mg/kg i.p. after varying doses of LPS (Table 6)): marked protective effect; number of mice with sickness score 5 ([2]; peptide twice (t = 2 hr and 24 hr) 5 mg/kg, LPS dose 10.5, t = 24 hr): 5; number of mice with score D (dead) ([2]; peptide twice (t = 2 hr and 24 hr) 5 mg/kg, LPS dose 10.5, t = 48 hr): 5; number of mice with sickness score 4 [2, 5]: 2; number of mice with sickness score 5 [2, 5]: 4; number of mice with score D (dead) [2, 6]: 4; number of mice with sickness score 4 [2, 6]: 2; number of mice with sickness score 1 ([2]; single dose 5 mg/kg, LPS dose 7**, t = 24 hr): 6; number of mice with sickness score 1 ([2]; single dose 5 mg/kg, LPS dose 7**, t = 48 hr): 6; number of mice with sickness score 1 [2, 7]: 2; number of mice with sickness score 2 [2, 7]: 4; number of mice with sickness score 1 ([2]; single dose 5 mg/kg, LPS dose 7*, t = 48 hr): 6; number of mice with sickness score 1 [2, 8]: 3; number of mice with sickness score 3 [2, 8]: 1; number of mice with sickness score 2 ([2]; single dose 5 mg/kg, LPS dose 8, t = 24 hr, 5 mg/kg): 5 and 3; number of mice with sickness score 0 [2, 9]: 4; number of mice with sickness score 2 [2, 9]: 1; number of mice with sickness score 1 [2, 10]: 2; number of mice with sickness score 3 [2, 10]: 1; number of mice with sickness score 4 [2, 10]: 1; number of mice with score D (dead) [2, 11]: 1; number of mice with sickness score 2 [2, 11]: 1; number of mice with sickness score 1 ([2]; single dose 5 mg/kg, LPS dose 10, t = 48 hr, 5 mg/kg): 6 and 4; % survival ([2]; single injection 5 mg/kg 2 hours after LPS (300 μg), time 0 hours): 100%; % survival ([2]; single injection 5 mg/kg 2 hours after LPS, time 14 hours): 100%; % survival ([2]; single injection 5 mg/kg 2 hours after LPS, time 24 hours): 100%; % survival ([2]; single injection 5 mg/kg 2 hours after LPS, time 48 hours): 100%; % survival ([2]; single injection 5 mg/kg 2 hours after LPS, time 84 hours): 100%; % survival ([2]; single injection 5 mg/kg 24 hours after LPS (300 μg), time 0 hours): 100%; % survival ([2]; single injection 5 mg/kg 24 hours after LPS, time 14 hours): 100%; % survival ([2]; single injection 5 mg/kg 24 hours after LPS, time 24 hours): 100%; % survival ([2]; single injection 5 mg/kg 24 hours after LPS, time 48 hours): 0%; % survival ([2]; single injection 5 mg/kg 24 hours after LPS, time 84 hours): 0%; BUN, mean ([3]; 2 hr after reperfusion): 17.53; BUN, mean ([3]; 24 hr after reperfusion): 56.08; BUN, mean ([3]; 72 hr after reperfusion): 73.18; BUN, mean ([3]; t = 0 hr (before clamping)): 7.518

Q: For “VLPALP [6-mer oligopeptide derived from the beta-chain of human chorionic gonadotropin hormone (Khan et al. 2002)]”, which “septic shock in mice” value [4] is on record?
A: inhibited septic shock in mice
